Experimental findings from patent US9382254B2, “Compounds and pharmaceutical compositions thereof for the treatment of cystic fibrosis” (Galapagos NV, priority 2013, dated 2016) are described below.

In one assay the target is T1, CFTR ΔF508 mutant (Homo sapiens, UniProt P13569, DEL508-508).
T1 construct: expressed in transfected cells; host or cells: CFBE41o- (adenoviral transduction)
Put plainly: YFP-halide influx assay for the CFTR-ΔF508 mutation (384 well, FDSS/μCell). The assay is classed as cell-based. To be noted: CFBE41o- cells, CFTR-ΔF508, 1×D-PBS, fluorescence after 36 seconds. The text has this:
The YFP halide influx assay measures the functionality of the cystic fibrosis Transmembrane Conductance regulator (CFTR) channels in the cystic fibrosis bronchial epithelium cell line CFBE41o-. The assay is used to evaluate the capacity of compounds to increase the open probability of existing CFTR channels in the membrane. It makes use of the observation that the yellow fluorescent protein (YFP) variant YFP H148Q, I152L has its fluorescence substantially quenched by halide ions like Cl— and I—. (Galietta, Haggie, & Verkman, 2001) (Nagai, et al., 2002)
For this purpose, CFBE41o-cells are seeded in 384 well plates (3000 CFBE cells/well). One day after seeding, the CFBE cells are transduced with adenoviral vectors that direct the expression of the CFTR ΔF508 mutant and of the YFP reporter. Cells are incubated at 27° C., 5% CO2 for 24 hours so as to allow for the proper folding and migration to the membrane of the CFTR channel or treated with a CFTR modulator during 24 h at 37° C.
The I— induced quenching of fluorescence is recorded […] immediately after injection of I— for 2 min on an FDSS/μCell (Hamamatsu). The capacity of a compound to increase the channel opening is directly correlated with the decrease in fluorescence, and is expressed as (1-(fluorescence after 36 seconds (F)/fluorescence before injection (F0))) and an EC50 can be derived from a (1-F/F0) vs compound concentration plot.

Another assay has as its target T2, CFTR G551D mutant (Homo sapiens, UniProt P13569, G551D).
T2 construct: expressed in transfected cells; host or cells: HEK293 (reverse transfection with plasmid)
Briefly: YFP-halide influx assay for the CFTR-G551D mutation. The assay is classed as cell-based. Particulars: HEK293 cells, forskolin 10.67 μM. From the text:
The YFP halide influx assay measures the functionality of the cystic fibrosis Transmembrane Conductance regulator (CFTR) channels. The assay is used to evaluate the capacity of compounds to increase the channel opening of existing mutant CFTR channels in the membrane. It makes use of the observation that the yellow fluorescent protein (YFP) variant YFP H148Q, I152L, […] has its fluorescence substantially quenched by halide ions like Cl^− and I^−. (Galietta, Haggie, & Verkman, 2001)
For this purpose, HEK293-cells are seeded in 96 well plates. During seeding, the cells are reverse-transfected with plasmid vectors that direct the expression of the CFTR G551D mutant and of the YFP reporter. Cells are incubated at 37° C., 5% CO2 for 24 hours so as to allow for sufficient expression of the CFTR protein.
The I^−-induced quenching of fluorescence is recorded immediately after injection of I^− for 7 seconds. The capacity of a compound to increase the channel opening is directly correlated with the decrease in fluorescence, and is expressed as (1-(fluorescence after 7 seconds (F)/fluorescence before injection (F0))) and an EC50 can be derived from a (1-F/F0) vs compound concentration plot.

T2 sequence (P13569 whole entry G551D): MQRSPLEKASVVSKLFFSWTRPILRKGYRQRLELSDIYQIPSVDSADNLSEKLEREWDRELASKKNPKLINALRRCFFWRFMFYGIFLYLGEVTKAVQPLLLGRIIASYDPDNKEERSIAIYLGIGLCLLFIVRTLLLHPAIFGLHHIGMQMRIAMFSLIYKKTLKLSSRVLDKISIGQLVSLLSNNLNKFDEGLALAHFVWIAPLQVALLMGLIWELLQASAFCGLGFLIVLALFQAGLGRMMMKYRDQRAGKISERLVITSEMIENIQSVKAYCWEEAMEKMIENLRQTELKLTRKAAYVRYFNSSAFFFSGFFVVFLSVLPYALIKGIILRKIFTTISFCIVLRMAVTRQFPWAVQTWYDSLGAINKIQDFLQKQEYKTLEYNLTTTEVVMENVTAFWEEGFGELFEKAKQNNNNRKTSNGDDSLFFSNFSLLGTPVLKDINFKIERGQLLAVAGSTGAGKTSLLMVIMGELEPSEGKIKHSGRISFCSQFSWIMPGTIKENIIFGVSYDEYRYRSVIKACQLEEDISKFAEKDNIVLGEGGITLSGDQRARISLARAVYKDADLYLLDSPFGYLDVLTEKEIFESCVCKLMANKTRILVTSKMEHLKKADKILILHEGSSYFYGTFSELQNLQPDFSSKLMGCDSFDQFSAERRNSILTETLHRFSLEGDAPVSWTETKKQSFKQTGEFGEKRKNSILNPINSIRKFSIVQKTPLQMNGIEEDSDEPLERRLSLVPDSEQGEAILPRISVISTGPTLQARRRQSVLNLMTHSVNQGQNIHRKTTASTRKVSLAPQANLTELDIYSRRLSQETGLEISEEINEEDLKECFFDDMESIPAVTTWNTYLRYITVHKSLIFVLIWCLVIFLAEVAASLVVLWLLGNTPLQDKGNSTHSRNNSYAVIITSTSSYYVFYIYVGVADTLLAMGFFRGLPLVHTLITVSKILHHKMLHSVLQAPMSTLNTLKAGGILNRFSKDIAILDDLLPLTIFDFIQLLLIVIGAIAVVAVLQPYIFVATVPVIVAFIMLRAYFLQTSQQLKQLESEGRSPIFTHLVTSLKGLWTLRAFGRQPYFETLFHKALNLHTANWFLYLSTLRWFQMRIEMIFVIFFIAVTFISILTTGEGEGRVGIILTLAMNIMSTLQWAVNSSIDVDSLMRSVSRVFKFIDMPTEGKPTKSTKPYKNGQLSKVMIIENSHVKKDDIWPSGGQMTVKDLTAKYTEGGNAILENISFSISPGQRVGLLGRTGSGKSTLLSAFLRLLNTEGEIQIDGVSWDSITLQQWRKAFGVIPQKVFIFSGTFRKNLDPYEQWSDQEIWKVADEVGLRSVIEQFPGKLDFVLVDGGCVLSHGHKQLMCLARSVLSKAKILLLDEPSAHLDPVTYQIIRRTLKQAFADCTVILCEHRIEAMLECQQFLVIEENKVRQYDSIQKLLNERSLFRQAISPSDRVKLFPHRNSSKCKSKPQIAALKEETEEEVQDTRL
T1 sequence (P13569 with tags, fused parts or gaps DEL508-508): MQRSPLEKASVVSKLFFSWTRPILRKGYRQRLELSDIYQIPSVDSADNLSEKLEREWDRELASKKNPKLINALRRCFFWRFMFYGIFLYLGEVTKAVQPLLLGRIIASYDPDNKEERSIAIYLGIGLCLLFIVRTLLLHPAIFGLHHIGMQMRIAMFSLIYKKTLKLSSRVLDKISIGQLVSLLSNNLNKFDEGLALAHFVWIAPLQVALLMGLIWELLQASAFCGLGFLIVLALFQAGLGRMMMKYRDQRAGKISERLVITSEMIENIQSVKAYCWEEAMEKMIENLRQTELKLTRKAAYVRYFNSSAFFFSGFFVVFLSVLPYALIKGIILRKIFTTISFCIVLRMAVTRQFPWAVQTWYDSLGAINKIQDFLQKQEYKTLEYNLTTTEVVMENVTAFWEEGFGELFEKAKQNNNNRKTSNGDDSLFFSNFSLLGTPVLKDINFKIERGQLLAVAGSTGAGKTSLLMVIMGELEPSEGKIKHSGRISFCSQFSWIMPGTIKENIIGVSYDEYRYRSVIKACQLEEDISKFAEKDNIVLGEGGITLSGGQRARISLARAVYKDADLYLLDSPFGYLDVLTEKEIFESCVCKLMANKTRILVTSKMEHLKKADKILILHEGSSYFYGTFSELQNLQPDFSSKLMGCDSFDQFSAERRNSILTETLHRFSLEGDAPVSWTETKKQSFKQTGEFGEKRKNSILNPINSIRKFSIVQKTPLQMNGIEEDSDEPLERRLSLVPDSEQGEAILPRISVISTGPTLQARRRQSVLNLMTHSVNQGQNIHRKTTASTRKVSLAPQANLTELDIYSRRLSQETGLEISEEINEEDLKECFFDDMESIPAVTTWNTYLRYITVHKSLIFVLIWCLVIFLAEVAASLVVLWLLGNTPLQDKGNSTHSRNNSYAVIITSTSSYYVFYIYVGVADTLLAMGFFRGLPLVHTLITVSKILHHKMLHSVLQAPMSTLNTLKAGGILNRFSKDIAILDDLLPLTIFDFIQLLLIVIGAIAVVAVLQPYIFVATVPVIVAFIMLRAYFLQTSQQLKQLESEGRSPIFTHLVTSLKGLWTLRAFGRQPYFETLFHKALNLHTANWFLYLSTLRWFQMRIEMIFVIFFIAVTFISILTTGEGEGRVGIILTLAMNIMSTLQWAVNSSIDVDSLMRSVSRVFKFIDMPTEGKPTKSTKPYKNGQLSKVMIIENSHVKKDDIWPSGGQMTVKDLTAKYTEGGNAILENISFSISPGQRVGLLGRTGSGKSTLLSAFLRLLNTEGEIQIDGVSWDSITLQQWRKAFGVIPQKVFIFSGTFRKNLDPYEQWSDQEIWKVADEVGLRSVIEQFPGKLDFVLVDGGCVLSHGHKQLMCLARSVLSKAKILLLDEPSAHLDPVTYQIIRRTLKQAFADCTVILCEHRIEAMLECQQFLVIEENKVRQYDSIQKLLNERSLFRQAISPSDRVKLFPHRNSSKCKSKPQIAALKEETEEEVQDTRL

Regarding `CC(O)C(=O)Nc1sc(S(=O)(=O)c2ccc(C(F)(F)F)cn2)cc1C(N)=O` (centres unmarked) [Compound 396, 2-(2-hydroxypropanoylamino)-5-[[5-(trifluoromethyl)-2-pyridyl]sulfonyl] thiophene-3-carboxamide], the EC50 came out at 110 nM at CFTR ΔF508 mutant and 1350 nM on CFTR G551D mutant.

Take `Cc1cc(C#N)cc(S(=O)(=O)c2cc(C(N)=O)c(NC(=O)C(C)(C)O)s2)c1` [Compound 399, 5-(3-cyano-5-methyl-phenyl)sulfonyl-2-[(2-hydroxy-2-methyl-propanoyl)amino] thiophene-3-carboxamide]: the EC50 on CFTR ΔF508 mutant is 56.6 nM; on CFTR G551D mutant it was 1900 nM.

Regarding `CC(O)C(=O)Nc1sc(S(=O)(=O)c2ccc(OC(F)F)cc2)cc1C(N)=O` (centres unmarked) [Compound 403, 5-[4-(difluoromethoxy)phenyl] sulfonyl-2-(2-hydroxypropanoylamino) thiophene-3-carboxamide], the EC50 on CFTR ΔF508 mutant stood at 27.5 nM; at CFTR G551D mutant it was 1610 nM.

As to `NC(=O)c1cc(S(=O)(=O)c2cc(F)ccc2CC(F)(F)F)sc1NC(=O)CO` [Compound 340, 5-[5-Fluoro-2-(2,2,2-trifluoro-ethyl)-benzenesulfonyl]-2-(2-hdyroxy-acetylamino)-thiophene-3-carboxylic acid amide], the half-maximal effective concentration (EC50) came to 8 nM on CFTR ΔF508 mutant and 478 nM on CFTR G551D mutant.

As for `C[C@H](CO)C(=O)Nc1sc(S(=O)(=O)c2ccc(OC(F)(F)F)cc2)cc1C(N)=O` [Compound 382, 2-[[(2R)-3-hydroxy-2-methyl-propanoyl]amino]-5-[4-(trifluoromethoxy)phenyl] sulfonyl-thiophene-3-carboxamide], the values for the EC50 at CFTR ΔF508 mutant and at CFTR G551D mutant were 66.1 nM and 873 nM, respectively.

For the compound `CC(C)(O)C(=O)Nc1sc(S(=O)(=O)c2nccnc2C(F)(F)F)cc1C(N)=O` [Compound 417, 2-[(2-hydroxy-2-methyl-propanoyl)amino]-5-[3-(trifluoromethyl)pyrazin-2-yl]sulfonyl-thiophene-3-carboxamide], the EC50 on CFTR ΔF508 mutant stood at 147 nM; on CFTR G551D mutant, 6660 nM.

As to `COCCOc1ccc(S(=O)(=O)c2cc(C(N)=O)c(NC(=O)C(C)(C)O)s2)cc1` [Compound 371, 2-[(2-hydroxy-2-methyl-propanoyl)amino]-5-[4-(2-methoxyethoxy)phenyl] sulfonyl-1-thiophene-3-carboxamide], the EC50 is 107 nM on CFTR ΔF508 mutant and 3330 nM on CFTR G551D mutant.

Take `CC(C)(O)C(=O)Nc1sc(S(=O)(=O)c2ccc(C(F)F)cn2)cc1C(N)=O` [Compound 395, 5-[[5-(difluoromethyl)-2-pyridyl]sulfonyl]-2-[(2-hydroxy-2-methyl-propanoyl)amino] thiophene-3-carboxamide]: the values for the EC50 on CFTR ΔF508 mutant and at CFTR G551D mutant were 294 nM and 1860 nM, respectively.

As to `Cc1cc(S(=O)(=O)c2cc(C(N)=O)c(NC(=O)C(C)(C)O)s2)ncc1F` [Compound 383, 5-[(5-fluoro-4-methyl-2-pyridyl)sulfonyl]-2-[(2-hydroxy-2-methyl-propanoyl)amino] thiophene-3-carboxamide], the EC50 on CFTR ΔF508 mutant was 135 nM; on CFTR G551D mutant, 2610 nM.

In the case of `COc1ccc(S(=O)(=O)c2cc(C(N)=O)c(NC(=O)C(C)(C)O)s2)cc1` [Compound 400, 2-[(2-hydroxy-2-methyl-propanoyl)amino]-5-(4-methoxyphenyl)sulfonyl-thiophene-3-carboxamide], the EC50 on CFTR ΔF508 mutant stood at 56.7 nM; on CFTR G551D mutant, 1950 nM.

As to `COc1ccc(OC(F)(F)F)c(S(=O)(=O)c2cc(C(N)=O)c(NC(=O)C(C)CO)s2)c1` (centres unmarked) [Compound 370, 2-[(3-hydroxy-2-methyl-propanoyl)amino]-5-[5-methoxy-2-(trifluoromethoxy)phenyl]sulfonyl-thiophene-3-carboxamide], the half-maximal effective concentration (EC50) is 2.5 nM at CFTR ΔF508 mutant and 57.4 nM on CFTR G551D mutant.

On to `NC(=O)c1cc(S(=O)(=O)c2ccccc2OC(F)(F)F)sc1NC(=O)CO` [Compound 319, 2-(2-Hydroxy-acetylamino)-5-(2-trifluoromethoxy-benzensulfonyl)-thiophene-3-carboxylic acid amide], for which the figures for the EC50 on CFTR ΔF508 mutant and at CFTR G551D mutant were 8.2 nM and 377 nM, respectively.

With `CC(C)(O)C(=O)Nc1sc(S(=O)(=O)c2ncccc2Cl)cc1C(N)=O` [Compound 317, 5-(3-Chloro-pyridine-2-sulfonyl)-2-(2-hydroxy-2-methyl-propionylamino)-thiophene-3-carboxylic acid amide], the EC50 at CFTR ΔF508 mutant was 241 nM; at CFTR G551D mutant, 3330 nM.

As to `Cc1ccc(S(=O)(=O)c2cc(C(N)=O)c(NC(=O)C(C)(C)O)s2)cc1` [Compound 316, 2-(2-Hydroxy-2-methyl-propionylamino)-5-(toluene-4-sulfonyl)-thiophene-3-carboxylic acid amide], the values for the EC50 at CFTR ΔF508 mutant and at CFTR G551D mutant were 31.1 nM and 1160 nM, respectively.

Regarding `CC(C)C(O)C(=O)Nc1sc(S(=O)(=O)c2ccc(F)cc2)cc1C(N)=O` (centres unmarked) [Compound 341, 5-(4-fluorophenyl)sulfonyl-2-[(2-hydroxy-3-methyl-butanoyl)amino] thiophene-3-carboxamide], the concentration giving a half-maximal response (EC50) at CFTR ΔF508 mutant came out at 20.2 nM; at CFTR G551D mutant it was 1510 nM.

Take `C[C@H](O)C(=O)Nc1sc(S(=O)(=O)c2c(Cl)cc(F)cc2Cl)cc1C(N)=O` [Compound 355, 5-(2,6-dichloro-4-fluoro-phenyl)sulfonyl-2-[[(2S)-2-hydroxypropanoyl]amino] thiophene-3-carboxamide]: the EC50 at CFTR ΔF508 mutant is 5.4 nM; at CFTR G551D mutant, 942 nM.

Take `C[C@H](O)C(=O)Nc1sc(S(=O)(=O)c2c(Cl)cccc2Cl)cc1C(N)=O` [Compound 314, 5-(2,6-Dichloro-benzenesulfonyl)-2-((S)-2-hydroxy-propionylamino)-thiophene-3-carboxylic acid amide]: the EC50 at CFTR ΔF508 mutant came out at 7.5 nM; at CFTR G551D mutant it was 458 nM.

In the case of `CC(CO)C(=O)Nc1sc(S(=O)(=O)c2cc(F)ccc2OC(F)(F)F)cc1C(N)=O` (centres unmarked) [Compound 351, 5-[5-fluoro-2-(trifluoromethoxy)phenyl] sulfonyl-2-[(3-hydroxy-2-methyl-propanoyl)amino] thiophene-3-carboxamide], the EC50 came to 3 nM at CFTR ΔF508 mutant and 37.3 nM on CFTR G551D mutant.

For the compound `COc1c(Cl)ncnc1S(=O)(=O)c1cc(C(N)=O)c(NC(=O)C(C)(C)O)s1` [Compound 414, 5-(6-chloro-5-methoxy-pyrimidin-4-yl)sulfonyl-2-[(2-hydroxy-2-methyl-propanoyl)amino] thiophene-3-carboxamide], the EC50 was 111 nM at CFTR ΔF508 mutant and over 1000 nM on CFTR G551D mutant (class symbol).

For `CC(C)[C@H](O)C(=O)Nc1sc(S(=O)(=O)c2ccc(F)cc2Cl)cc1C(N)=O` [Compound 361, 5-(2-chloro-4-fluoro-phenyl)sulfonyl-2-[[(2S)-2-hydroxy-3-methyl-butanoyl]amino] thiophene-3-carboxamide], the EC50 was found to be 7.01 nM at CFTR ΔF508 mutant and 280 nM on CFTR G551D mutant.

In the case of `CC(C)(C)C(O)C(=O)Nc1sc(S(=O)(=O)c2ccc(OC(F)(F)F)cc2)cc1C(N)=O` (centres unmarked) [Compound 349, 2-[(2-hydroxy-3,3-dimethyl-butanoyl)amino]-5-[4-(trifluoromethoxy)phenyl] sulfonyl-thiophene-3-carboxamide], the 50% effective concentration (EC50) on CFTR ΔF508 mutant worked out at 343 nM; at CFTR G551D mutant, 931 nM.

In the case of `CC(C)(O)C(=O)Nc1sc(S(=O)(=O)c2ccc(OC(F)(F)F)c(F)c2F)cc1C(N)=O` [Compound 378, 5-[2,3-difluoro-4-(trifluoromethoxy)phenyl] sulfonyl-2-[(2-hydroxy-2-methyl-propanoyl)amino] thiophene-3-carboxamide], the EC50 on CFTR ΔF508 mutant was 26.1 nM; on CFTR G551D mutant, 1850 nM.
